{"source": "patent US20110172308A1", "about": "“Antagonsim of PGF2a Receptor to Treat Hyertension Characterized by Activation of the Renin-Angiotensin-Aldosterone System” (The Trustees of The University of Pennsylvania, priority 2008, published 2011)", "key": {"WT and FP knockout mice": {"system": "WT and FP knockout mice", "experiment": "Mean arterial blood pressure after bolus of Ang II", "type": "in vivo, mouse", "details": "50 ng/kg, acute intracarotid infusion, n=7", "experimental": "FIGS. 3A-3C depicts data related to angiotensin II receptor (AT1) expression and blood pressure effects of Ang II injection in WT and FP knockout mice. FIG. 3A depicts AT1a and FIG. 3B depicts AT1b gene expression in aorta by real time RT-PCR. *p<0.01 (n=4) versus WT, repeated 3 times. FIG. 3C depicts blood pressure (BP) after Angiotengin II (Ang II) administration (50 ng/kg) compared with baseline in FP^−/− and WT littermates. Mean arterial BP was monitored in mice by pressure transducer connected to a catheter in left artery. Baseline BP is readout before injection. BP changes are depicted as difference between baseline and after injection at one min intervals. *p<0.01 versus WT, n=8-9.\nMean Arterial Blood Pressure (BP) Measurements: The right internal jugular vein and left carotid artery of anesthetized mice were cannulated with PE-10 tubing. The arterial catheter was connected to a Capto SP844 pressure transducer, and BP was monitored continuously with a PowerLab/8SP system. […]\nTo examine the acute effect of Ang II on blood pressure, WT and FPKO mice were sedated and subjected to a bolus infusion of Ang II. Blood pressure was measured directly using an arterial catheter connected to a pressure transducer. After the equilibration period and the baseline BP was recorded, mice were injected with a bolus of Ang II."}, "renin secretion": {"system": "renin secretion", "details": "Jensen et al., 1996; Fujino et al., 2004; cited from earlier work"}, "[1]": {"system": "juxtaglomerular (JG) cells", "experiment": "Renin mRNA expression in cultured JG cells treated with prostanoid agonists (real time RT-PCR)", "type": "cell-based, mouse", "experimental": "Culture of Juxtaglomerular (JG) cells: JG cells were prepared as described (Fujino et al., 2004, J Clin Invest. 114: 805-812). The kidneys were removed, decapsulated, minced with a surgical blade, incubated with 0.1% collagenase for 15 minutes at 37° C. and filtered through a 40 μm nylon mesh. The filtered cells were placed on 15 ml of 30% isosmotic Percoll solution (Amersham Biosciences) and centrifuged at 27,000 g for 20 minutes at 4° C. The cell layer near the surface, enriched with JG cells, was collected and washed. […] The resulting cDNA (40 ng) was used for quantitative real time PCR. Quantitative real time PCR Analysis of Gene Expression: TaqMan gene expression assays (Applied Biosystems, Foster City, Calif.; catalog No. 4331182) for FP (Mm004360055_m1), RENIN (Mm02342889_g1), TNFα (Mm00443258_m1), IL-1β (Mm00434228_m1), IL-12β (Mm01351787_m1), IL-4 (Mm00445259_m1,) IL-6 (Mm00446190_m1), IL-18 (Mm00434225_m1), iNOS (Mm01309902_m1), TGFβ (Mm00441724_m1), INFγ (Mm00801778_m1), IL-10 (Mm00439616_m1) were performed on an ABI Prism 7900 Sequence Detection System. […] An prostanoid agonist was administered as different concentrations and the expression of renin was monitored using real time RT-PCR. […]"}, "JG cells": {"system": "JG cells", "experiment": "cAMP content in cultured cells rich in JG cells", "type": "cell-based, mouse", "details": "vs vehicle controls", "text": "(§1) FIGS. 5A-5E depict data related to renin expression resulting from activation of FP or prostacyclin (IP) receptor in in vitro cultures of juxtaglomerular apparatus cells obtained from WT or FP knockout mice. FIG. 5A is a graph depicting the effect of FP agonists Latanoprost (Lata) and Travoprost (Trav), and IP agonist Cicaprost (Cica) on renin mRNA expression in JG enriched cultured cells. Each point represents mean±SEMs of 4 cell groups, repeated 3 times. FIG. 5B is a bar graph illustrating the effect of effect of Latanoprost and Cicaprost on cAMP content in cultured cells rich in JG cells. Data are presented as cAMP fold change from 3-6 independent samples (6-well plate) from 3 independent experiments. *, p<0.05 vs vehicle controls, n=3. FIG. 5C is a graph of the original recording of membrance capacitance in a single mouse JG cell from WT mice. […] FIG. 5E is a graph of whole cell currents were measured in response to 11 pulses from −150 to +90 mV in 30-mV steps for 200 ms from a holding potential of −30 mV. Pulses were applied before and after superfusion with 1 μM Latanoprost. Mean steady-state current-voltage curves from 4 independent experiments before (cycle) and after (square) 20 min of capacitance measurements are given.\nCulture of Juxtaglomerular (JG) cells: JG cells were prepared as described (Fujino et al., 2004, J Clin Invest. 114: 805-812). […]"}, "single WT JG cells": {"system": "single WT JG cells", "experiment": "Patch-clamp membrane capacitance of single JG cells", "type": "cell-based, mouse", "details": "single WT JG cells in vitro, 1 μM Latanoprost", "text": "as §1"}, "WT and FPKO mice": {"system": "WT and FPKO mice", "experiment": "Mean arterial blood pressure after PGF2α administration", "type": "in vivo, mouse", "experimental": "Mean Arterial Blood Pressure (BP) Measurements: The right internal jugular vein and left carotid artery of anesthetized mice were cannulated with PE-10 tubing. The arterial catheter was connected to a Capto SP844 pressure transducer, and BP was monitored continuously with a PowerLab/8SP system. Mice were injected via the right internal jugular vein with […] or PGF2α administration to exclude volume-mediated BP changes.\nGiven that the lacZ gene was knocked into the endogenous FP receptor locus in the FP targeting allele, the receptor expression pattern was monitored by mapping β-galactosidase (β-gal) activity. Scattered activity of β-gal was detectable in the medial smooth muscle layer of renal small arteries in FP^+/− mice (FIG. 6A), but was not evident in FP^+/− mouse aorta nor in the atherosclerotic lesions of Ldlr^−/−/FP^−/− mice (FIGS. 6B-6G). To assess the systemic effect of PGF2α, WT and FPKO mice were sedated in order to measure blood pressure directly in the heart. PGF2α was administered and blood pressure was monitored. Once blood pressure returned to baseline, the next dose of PGF2α was administered (FIG. 6H). Four doses of PGF2α were tested: 10 μg/kg body weight, 30 μg/kg, 90 μg/kg and […]."}}, "note": "“Also recorded” adds a separate entry of the source.", "data": [{"molecule": "angiotensin II (DRVYIHPF; Angiotensin-2; UniProt P01019 25-32, looked up) [Ang II, Ang II peptide, a powerful vasoconstrictor]", "values": [{"measurement": "hypertensive response to acute infusion of Ang II in FP KO mice", "setting": "WT and FP knockout mice; FP KO mice", "result": "37.5±5.6"}, {"measurement": "hypertensive response to acute infusion of Ang II in WT controls", "setting": "WT and FP knockout mice; WT controls", "result": "20.3±4.7"}]}, {"molecule": "CCCCC[C@H](O)/C=C/[C@H]1[C@H](O)CC(=O)[C@@H]1C/C=C\\CCCC(=O)O", "note": "[PGE2]", "values": [{"measurement": "renin secretagogue activity", "setting": "renin secretion", "result": "potent renin secretagogues"}]}, {"molecule": "CCCCC[C@H](O)/C=C/[C@@H]1[C@H]2C/C(=C/CCCC(=O)O)O[C@H]2C[C@H]1O", "note": "[Prostacyclin (PGI2), Prostacyclin]", "values": [{"measurement": "renin secretagogue activity", "setting": "renin secretion", "result": "potent renin secretagogues"}]}, {"molecule": "CCC#CC[C@H](C)[C@H](O)C#C[C@@H]1[C@H]2C/C(=C/COCC(=O)O)C[C@H]2C[C@H]1O", "note": "[Cicaprost]", "values": [{"measurement": "expression of renin in JG cells from FPKO mice", "setting": "[1]; JG cells from FPKO mice, 20 hours incubation, various concentrations", "result": "stimulated"}, {"measurement": "effects as a renin secretagogue, WT compared with FP−/− mice", "setting": "[1]; JG cells from WT vs FP−/− mice", "result": "similar"}, {"measurement": "JG cell cAMP", "setting": "JG cells", "result": "increase"}]}, {"molecule": "CC(C)OC(=O)CCC/C=C\\C[C@@H]1[C@@H](CC[C@@H](O)CCc2ccccc2)[C@H](O)C[C@@H]1O", "note": "[Latanoprost]", "values": [{"measurement": "JG cell cAMP", "setting": "JG cells", "result": "failed to increase"}, {"measurement": "change in membrane capacitance", "setting": "single WT JG cells", "result": "no change"}]}, {"molecule": "prostaglandin F2α [PGF2α]", "values": [{"measurement": "blood pressure after PGF2α administration in FPKO mice", "setting": "WT and FPKO mice; FPKO mice, 10, 30, 90, 270 μg/kg", "result": "not"}, {"measurement": "blood pressure in FP−/− mice at the highest rate of infusion", "setting": "WT and FPKO mice; FP−/− mice, highest rate of infusion", "result": "rise in blood pressure"}, {"measurement": "blood pressure after PGF2α administration in WT mice", "setting": "WT and FPKO mice; WT mice, 10, 30, 90, 270 μg/kg", "result": "increased; also recorded: dose dependent"}, {"measurement": "renin secretagogue activity", "setting": "renin secretion", "result": "not"}]}]}
